# Data published in patent US11759480B2, “Compositions and methods for CAR T cell therapy” (ENDOCYTE, INC., priority 2017, dated 2023).
# How the values were obtained:
# [1] = system: MDA-MB-231 solid tumor xenografts; assay: Anti-tumor efficacy and toxicity of CAR T cells with EC17 in vivo (Example 17); design: species or system NSG mice
# Description: Immunodeficient NSG mice (Jackson Laboratory) were used to identify the efficacy of CAR T cell anti-tumor activity in vivo. A folate receptor expressing MDA-MB-231 cancer cell line was subcutaneously injected into the back of NSG mice to establish solid tumor xenografts. When tumor volume of around 100-300 mm^3 was reached, a desired concentration of EC17 (as shown in the figure legends) was introduced 4 hours before the administration of a desired number of CAR T cell (as shown in the figure legends) into the mice bearing tumors. After initial administration of EC17 and CAR T cells, desired concentrations of EC17 (as shown in the figure legends) were also introduced (i.v.) three times per week. Control mice were administered T cells without CAR modification. Other control mice were administrated CAR-Ts, but PBS was dosed instead of EC17. Anti-tumor efficacy was monitored by tumor volume. General toxicity of the therapy was monitored by weight loss, gross animal morphology and behavior.
# MDA-MB-231 cells = assay: Bridge dose versus lysis and IFNγ release in MDA-MB-231 cell cultures (Example 43); format: cell-based, human; settings: 0.001 to 100,000 nM, Effector:Tumor 5:1
# Description: FR positive cancer cell lines (e.g. KB or MDA-MB-231 cells) were seeded at density of 10^4 cells/100 μl media into 96 well plates and grown overnight. Anti-fluorescein CAR T cells were added to each well in the absence or presence of bridge molecules. After co-incubation for 6-24 hours, plates were centrifuged at 350×g for 10 min to remove debris and supernatants were analyzed for lactate dehydrogenase release (cell death analysis) using Pierce™ LDH cytotoxicity assay kit (Thermo Fisher Scientific, MA) and interferon γ (IFNγ) levels using human IFNγ ELISA kit (Biolegend, CA), while pellets were either evaluated for CAR T cell activation by staining with anti-human CD69 APC (Clone: FN50, Biolegend, CA) or examined for CAR T cell proliferation by culturing for 5 days in TexMACS™ medium (Miltenyi Biotech Inc, CA) containing 1% penicillin and streptomycin sulfate and quantitating by flow cytometry using the intrinsic GFP fluorescence and staining with anti-human CD3 APC antibody (Clone:HIT3a, Biolegend, CA).
# Although a highly elevated and prolonged CRS can often lead to patient death, some level of CRS has been viewed as desirable, since patients displaying no evidence of CRS are not commonly observed to respond to CAR T cell therapies. […]
# MDA-MB-231 tumors = assay: EC17 pre-painting combined with delayed second EC17 dose (Example 30); format: in vivo, mice
# Description: FITC-CAR-T related toxicity (e.g. sCRS) can be reduced by the combination of EC17 pre-painting and the delay of EC17 dosing post CAR-T administration. To explore strategies to control therapy-related toxicity, the combination of the EC17 pre-painting and EC17 dosing schedule optimization was evaluated. Mice bearing MDA-MB-231 tumors (100-200 mm3) were divided into three groups. Mice in group #1 (no EC17 pre-painting) were administered with 8 million FITC-CAR-T cells through the tail vein, and 500 nmol/kg EC17 was then dosed as a single dose per week (at days 2, 9, 16, etc.) post CAR-T administration. Mice in group #2 (EC17 4 hour pre-painting) were pre-painted with 500 nmol/kg EC17 4 hours before the administration of 8 million CAR-T cells, and 500 nmol/kg EC17 was then dosed as a single dose per week post CAR-T administration. Mice in group #3 (EC17 4 hour pre-painting+delayed second EC17 dose) were also pre-painted with 500 nmol/kg EC17 4 hours before the administration of 8 million CAR-T cells, but the second dose of 500 nmol/kg EC17 was postponed until 7 days after CAR-T administration, and the single dose per week schedule of EC17 dosing was then followed. Three days after CAR-T administration, mice in the three groups were evaluated by visual observation.
# [2] = system: naïve mice without tumors; assay: FITC-CAR-T proliferation, toxicity and cytokines in naïve mice (Example 37); format: in vivo
# Description: The evaluation of FITC-CAR-T proliferation and related toxicity in both naïve mice and mice bearing FR+ tumor xenografts was tested. To evaluate whether FITC-CAR-T proliferation in vivo is dependent on the co-existence of the bridge (e.g. EC17) and the tumor antigen (e.g. folate receptor), FITC-CAR-T proliferation in vivo was compared in naïve mice and mice bearing FR+ tumor xenografts, either with or without EC17. 5-8 million CAR-T cells (as indicated in FIGS. 42 and 43) were administered (i.v.) into naïve mice without tumors and mice bearing FR+ tumor xenografts (80-200 mm3). 500 nmol/kg EC17 was dosed 4 hours before and three times per week post CAR-T administration, if desired. Mice were monitored for body weight changes and CAR-T cell count in blood circulation; some mice were also euthanized weekly to evaluate organs. […] CAR-T cell count in blood samples was also compared to evaluate CAR-T proliferation. […] Since the enlargement of spleen size is another indicator for CAR-T proliferation in vivo, spleen size was also measured as shown in FIG. 43B. […]
# Cytokine levels including IFN were measured using LEGENDplex human cytokine panel kits (BioLegend, San Diego, Calif.) according to the manufacturer's instructions. Plasma samples were diluted with Assay Buffer, and then mixed with Capture beads immobilized with the antibody directed to the analyzed cytokine. After 2 hours incubation at room temperature with shaking, biotinylated Detection antibody to the analyzed cytokine was added and incubated for one more hour at room temperature with shaking. Phycoerythrin (PE) labeled streptavidin was then added to bind with biotin on the Detection antibody, and FACS was used to read the signal of PE on the binding complex (capture antibody-cytokine-detection antibody). The intensity of PE is proportional to the level of analyzed cytokine. A series of cytokine solutions with known concentrations were measured at the same time and used as standards to quantitate the cytokine levels in the analyzed samples.
structure (smiles),measurement,setting,value
"Nc1nc2ncc(CNc3ccc(C(=O)NC(CCC(=O)NCCNC(=S)Nc4ccc(-c5c6ccc(=O)cc-6oc6cc(O)ccc56)c(C(=O)O)c4)C(=O)O)cc3)nc2c(=O)[nH]1 (stereo not shown) [EC17, FITC-Folate]",effect of changing dosing frequency from TIW to SIW,[1]; 5 million CAR T cells,reduce the toxicity and achieve better anti-tumor potency
same,anti-tumor outcome,[1]; EC17 20 and 100 nmoles/kg,complete cures
same,sCRS and body weight loss compared to 500 nmoles/kg cohort,[1]; EC17 20 and 100 nmoles/kg,a lower percentage of sCRS and less body weight loss
same,body weight loss,"[1]; optimized EC17 amount and CAR T numbers, complete cures reached",2%
same,sCRS and cures,[1]; over-saturated EC17 doses 1500 and 10000 nmoles/kg,less mice showed sCRS but less mice reached cures
same,bridge dose with little effect on tumor cell lysis,MDA-MB-231 cells,below 0.01 nM
same,anti-tumor outcome,MDA-MB-231 tumors; all three groups,complete responses
same,sCRS by visual observation,"MDA-MB-231 tumors; group #1 no pre-painting, three days after CAR-T",the worst sCRS
same,sCRS by visual observation,MDA-MB-231 tumors; group #2 EC17 4 hour pre-painting,sCRS but less severe
same,sCRS by visual observation,MDA-MB-231 tumors; group #3 EC17 4 hour pre-painting + delayed second EC17 dose,didn't show sCRS
same,cytokine production (CAR-T activity),[2]; 500 nmol/kg three times per week,not active in naïve mice
same,body weight,[2]; 500 nmol/kg three times per week or no EC17,did not show any apparent body weight loss
same,FITC-CAR-T proliferation,[2]; 5 or 8 million FITC-CAR-T cells,did not proliferate in naïve mice
